Results: ChEMBL document CHEMBL1201862, “PubChem BioAssay data set” (2004)
The source made the active and inactive calls.

Legend:
Streptococcus = test: GAS UMAA2166 growth inhibition – luminescence, BacTiterGlo, counter-screen for streptokinase expression inhibitor project, dose response (AID 1915); assay type: functional, organism-based;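 further: potency for reduction of bacterial viability or growth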
[1] = tested on: Streptococcus sp. 'group A'; test: Streptococcus pyogenes SK(-)GAS viability under kanamycin – luminescence, BacTiterGlo, confirmation, counter-screen for streptokinase expression inhibitor project, dose response (AID 1900); assay type: functional, organism-based
[2] = viability loss in HeLa cells – cytotoxicity control for MgcRacGAP inhibitor project, dose response (AID 624300); assay type: functional
Streptokinase A = target: T1, Streptokinase A (Streptococcus pyogenes serotype M1, UniProt P10520); test: viability-normalized secreted streptokinase activity reduction – plasminogen activation absorbance, OD405, dose response (AID 1914); assay type: functional, Streptococcus pyogenes M1 GAS;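 further: secreted streptokinase activity via plasminogen activation per viability signal from cell pellet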
T1 sequence (P10520 whole entry): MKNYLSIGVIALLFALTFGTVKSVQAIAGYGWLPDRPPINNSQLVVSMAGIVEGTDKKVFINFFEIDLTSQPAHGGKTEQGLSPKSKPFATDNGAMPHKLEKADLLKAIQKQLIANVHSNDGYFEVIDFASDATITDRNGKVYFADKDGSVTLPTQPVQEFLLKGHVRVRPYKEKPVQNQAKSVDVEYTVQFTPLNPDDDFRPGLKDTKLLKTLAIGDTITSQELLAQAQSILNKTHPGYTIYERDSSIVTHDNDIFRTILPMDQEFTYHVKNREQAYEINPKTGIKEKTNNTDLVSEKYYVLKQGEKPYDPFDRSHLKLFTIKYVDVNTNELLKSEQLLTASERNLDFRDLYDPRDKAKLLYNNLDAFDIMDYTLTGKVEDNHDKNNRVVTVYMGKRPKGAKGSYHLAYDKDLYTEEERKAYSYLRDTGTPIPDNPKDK

[3] = Counterscreen for AddAB inhibitors: absorbance-based bacterial cell-based high throughput dose response assay for inhibitors of bacterial viability. [Related pubchem assays (depositor defined):AID435030, AID449728, AID449731, AID488942, AID488955, AID488956]; assay type: functional
Exodeoxyribonuclease V = target: T2, Exodeoxyribonuclease V (Escherichia coli (strain K12), UniProt P04993+P07648+P08394); test: RecBCD inhibition via phage-restricted bacterial growth – absorbance, V66 E. coli, mutant T4 phage, counter-screen for AddAB inhibitor project, dose response (AID 492957); assay type: functional, cell-based, Escherichia coli str. K-12 substr. MG1655
T2 sequence (P04993 whole entry): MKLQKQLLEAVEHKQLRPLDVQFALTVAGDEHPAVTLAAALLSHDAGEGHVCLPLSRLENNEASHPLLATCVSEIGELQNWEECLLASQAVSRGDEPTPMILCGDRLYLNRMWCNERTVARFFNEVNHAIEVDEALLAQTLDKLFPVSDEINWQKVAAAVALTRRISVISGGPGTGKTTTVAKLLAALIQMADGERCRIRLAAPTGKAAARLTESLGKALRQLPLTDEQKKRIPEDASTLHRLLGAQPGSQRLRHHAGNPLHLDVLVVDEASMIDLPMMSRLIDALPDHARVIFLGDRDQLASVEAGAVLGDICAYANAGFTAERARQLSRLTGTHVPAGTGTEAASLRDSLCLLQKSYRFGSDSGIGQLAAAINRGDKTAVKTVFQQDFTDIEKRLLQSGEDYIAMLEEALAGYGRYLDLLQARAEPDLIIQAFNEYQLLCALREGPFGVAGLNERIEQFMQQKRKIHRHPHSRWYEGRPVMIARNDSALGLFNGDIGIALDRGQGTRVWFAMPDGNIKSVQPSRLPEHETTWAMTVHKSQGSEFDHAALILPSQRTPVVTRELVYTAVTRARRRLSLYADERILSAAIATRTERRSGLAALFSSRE
T2 sequence (P07648 whole entry): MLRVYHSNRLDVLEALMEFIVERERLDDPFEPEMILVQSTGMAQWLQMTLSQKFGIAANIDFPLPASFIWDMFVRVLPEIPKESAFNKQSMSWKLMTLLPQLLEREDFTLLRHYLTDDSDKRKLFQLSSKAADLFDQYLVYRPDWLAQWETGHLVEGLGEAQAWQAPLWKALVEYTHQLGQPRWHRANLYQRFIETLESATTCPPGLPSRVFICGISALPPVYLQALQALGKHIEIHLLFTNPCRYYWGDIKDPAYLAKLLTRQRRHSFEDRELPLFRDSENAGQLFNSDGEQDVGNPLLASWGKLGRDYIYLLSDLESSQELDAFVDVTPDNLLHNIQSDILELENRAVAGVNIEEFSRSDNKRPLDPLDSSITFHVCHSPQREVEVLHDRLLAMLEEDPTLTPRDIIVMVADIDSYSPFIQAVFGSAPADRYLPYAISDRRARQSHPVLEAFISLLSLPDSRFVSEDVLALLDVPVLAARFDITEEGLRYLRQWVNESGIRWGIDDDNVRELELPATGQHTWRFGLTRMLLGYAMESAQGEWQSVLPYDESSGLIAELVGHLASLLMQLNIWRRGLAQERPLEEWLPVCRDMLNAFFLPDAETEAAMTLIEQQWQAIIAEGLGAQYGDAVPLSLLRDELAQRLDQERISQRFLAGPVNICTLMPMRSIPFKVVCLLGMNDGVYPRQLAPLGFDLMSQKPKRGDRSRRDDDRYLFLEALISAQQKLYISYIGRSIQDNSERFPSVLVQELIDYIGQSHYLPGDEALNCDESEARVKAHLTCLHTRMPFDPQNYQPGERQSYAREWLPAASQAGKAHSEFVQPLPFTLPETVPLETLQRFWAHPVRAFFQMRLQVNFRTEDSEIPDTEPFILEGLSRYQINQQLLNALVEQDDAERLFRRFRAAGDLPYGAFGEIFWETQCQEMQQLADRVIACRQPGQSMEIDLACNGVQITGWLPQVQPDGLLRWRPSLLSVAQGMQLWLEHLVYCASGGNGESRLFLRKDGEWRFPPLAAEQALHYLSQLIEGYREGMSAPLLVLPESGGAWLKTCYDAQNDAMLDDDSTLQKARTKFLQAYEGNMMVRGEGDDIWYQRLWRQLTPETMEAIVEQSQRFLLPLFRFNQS
T2 sequence (P08394 whole entry): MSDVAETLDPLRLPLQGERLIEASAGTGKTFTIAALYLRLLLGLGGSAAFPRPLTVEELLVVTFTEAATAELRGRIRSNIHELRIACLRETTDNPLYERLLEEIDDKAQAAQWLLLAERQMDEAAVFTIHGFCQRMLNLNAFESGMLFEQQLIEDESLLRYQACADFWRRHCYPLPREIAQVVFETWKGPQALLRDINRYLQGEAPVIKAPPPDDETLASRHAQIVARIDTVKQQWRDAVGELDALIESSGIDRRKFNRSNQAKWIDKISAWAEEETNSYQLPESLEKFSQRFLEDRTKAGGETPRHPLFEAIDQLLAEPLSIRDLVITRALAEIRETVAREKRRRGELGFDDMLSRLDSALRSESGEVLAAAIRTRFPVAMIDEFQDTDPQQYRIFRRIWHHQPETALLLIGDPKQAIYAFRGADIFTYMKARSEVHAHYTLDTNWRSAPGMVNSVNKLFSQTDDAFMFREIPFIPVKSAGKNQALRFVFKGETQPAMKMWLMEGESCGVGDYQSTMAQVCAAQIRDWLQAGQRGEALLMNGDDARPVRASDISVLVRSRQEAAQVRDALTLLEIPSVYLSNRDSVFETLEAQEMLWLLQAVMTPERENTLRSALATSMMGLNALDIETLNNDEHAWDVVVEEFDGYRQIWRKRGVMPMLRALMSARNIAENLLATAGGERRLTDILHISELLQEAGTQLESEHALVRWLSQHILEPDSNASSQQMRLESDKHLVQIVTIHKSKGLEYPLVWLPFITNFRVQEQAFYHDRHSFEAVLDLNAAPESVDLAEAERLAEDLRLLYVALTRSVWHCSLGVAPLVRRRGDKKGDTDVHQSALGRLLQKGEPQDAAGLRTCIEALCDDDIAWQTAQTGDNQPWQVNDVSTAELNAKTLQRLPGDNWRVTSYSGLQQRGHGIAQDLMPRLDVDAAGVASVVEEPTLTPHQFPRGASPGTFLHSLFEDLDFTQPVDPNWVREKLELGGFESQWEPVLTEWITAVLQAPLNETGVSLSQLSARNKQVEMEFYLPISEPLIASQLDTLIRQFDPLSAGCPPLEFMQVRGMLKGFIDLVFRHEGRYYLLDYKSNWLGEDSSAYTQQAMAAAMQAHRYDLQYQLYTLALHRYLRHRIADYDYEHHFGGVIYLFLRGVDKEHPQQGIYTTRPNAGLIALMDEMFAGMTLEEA

[4] = microbe, parasite or virus in culture; assay type: functional; settings: Mycobacterium tuberculosis
[5] = fluconazole-exposed Candida albicans growth modulators – fluorescence, retest, confirmation (AID 2467); assay type: functional, cell-based
[6] = target: T3, DNA repair protein RAD52 homolog (Homo sapiens, UniProt P43351); assay type: functional, biochemical
T3 sequence (P43351 whole entry): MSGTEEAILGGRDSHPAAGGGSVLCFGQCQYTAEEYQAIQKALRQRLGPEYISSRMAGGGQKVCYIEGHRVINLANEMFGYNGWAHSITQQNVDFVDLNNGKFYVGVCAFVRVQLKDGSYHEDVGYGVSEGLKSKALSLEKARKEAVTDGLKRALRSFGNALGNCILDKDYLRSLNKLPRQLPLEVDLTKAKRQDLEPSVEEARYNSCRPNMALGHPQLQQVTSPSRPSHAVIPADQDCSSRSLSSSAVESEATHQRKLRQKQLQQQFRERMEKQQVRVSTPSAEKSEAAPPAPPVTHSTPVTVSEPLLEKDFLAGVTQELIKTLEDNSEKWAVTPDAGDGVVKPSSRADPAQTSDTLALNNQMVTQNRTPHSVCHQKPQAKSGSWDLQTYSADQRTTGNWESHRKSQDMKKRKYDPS

[7] = THP-1 cell cytotoxicity, dose response, cytotoxicity control for non-replicating M. tuberculosis project (AID 489025); assay type: functional
[8] = alpha-synuclein stem-loop luciferase translation blockers – H4 neuroglioma cells, luminescence, confirmation (AID 1988); assay type: functional, cell-based
[9] = luciferase reporter signal suppression in cells – H4 neuroglioma cells, luminescence, dose response (AID 1990); assay type: functional, cell-based
[10] = Vero E6 cell cytotoxicity, dose response, cytotoxicity control for non-replicating M. tuberculosis project, secondary assay (AID 492998); assay type: functional, VeroE6; settings: Vero C1008
Paired box protein Pax-8 = Paired box protein Pax-8 (Homo sapiens, UniProt Q06710); test: PAX8 transcriptional activity inhibition in RMG-I – RMG-I cells, luciferase, cherry-pick, dose response (AID 687027); assay type: functional, cell-based;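 further: luciferase reporter driven by Pax8 target thyroperoxidase promoter measured by SteadyGlo luminescence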
Sequence of Paired box protein Pax-8 (Q06710 whole entry): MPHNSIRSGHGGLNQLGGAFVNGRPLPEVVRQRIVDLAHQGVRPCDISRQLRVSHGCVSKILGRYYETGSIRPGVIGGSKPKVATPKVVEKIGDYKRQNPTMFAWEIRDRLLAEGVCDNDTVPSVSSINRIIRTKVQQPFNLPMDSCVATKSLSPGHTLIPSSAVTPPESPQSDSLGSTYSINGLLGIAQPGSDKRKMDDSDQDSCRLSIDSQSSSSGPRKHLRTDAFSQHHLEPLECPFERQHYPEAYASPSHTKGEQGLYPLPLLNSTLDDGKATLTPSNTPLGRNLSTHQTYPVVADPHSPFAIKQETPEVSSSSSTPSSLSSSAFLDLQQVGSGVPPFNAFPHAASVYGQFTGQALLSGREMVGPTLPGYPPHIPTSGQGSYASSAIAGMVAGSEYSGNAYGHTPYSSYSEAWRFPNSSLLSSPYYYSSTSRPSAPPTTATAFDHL

cells = assay type: functional
INS1 = test: INS-1E survival protection against cytokine death – cell-based, luminescence, retest, dose response (AID 449756); assay type: functional; settings: Rattus norvegicus;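 further: cell death triggered by IL-1 beta plus TNF-alpha plus IFN-gamma mixture; protective hits raise ATP signal compared with cytokine alone wells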
[11] = Luminescence Cell-Based Dose Response HTS to Identify Inhibitors of 5'UTR Stem-Loop Driven Prion Protein mRNA Translation in H4 Neuroglioblastoma Cells. [Related pubchem assays: 1827 (Project Summary), 1813 (Primary HTS)]; assay type: functional
[12] = HepG2 cell cytotoxicity, dose response, cytotoxicity control for non-replicating M. tuberculosis project (AID 489018); assay type: functional; settings: Mycobacterium tuberculosis
[13] = NIH-3T3 fibroblast cytotoxicity, dose response, cytotoxicity control, cell-based, fluorescence, Alamar Blue, secondary assay (AID 2327); assay type: functional;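 further: NIH-3T3 mouse fibroblasts cultured with fluconazole at 8 µg/mL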
[14] = viability loss of HMLE_sh_eGFP cells – cell-based, luminescence, counter-screen for HMLE_sh_ECad selective toxicity project, dose response (AID 463074); assay type: functional, Homo sapiens;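 further: HMLE human mammary epithelial cells expressing control shRNA against eGFP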
[15] = Luminescence Cell-Based Dose Retest to Confirm Inhibitors of Cancer Stem Cells. [Related pubchem assays (depositor defined):AID2717, AID2721]; assay type: functional; settings: Homo sapiens

Compound: O=C(NC(NC(=S)Nc1ccc(Cl)c(Cl)c1)C(Cl)(Cl)Cl)c1ccco1 (centres undefined)
- EC50 (Streptococcus): 10.9 µM (active)
- EC50 [1]: 4.32 µM (active)
- CC50 [2]: 57.7 µM (active)
- EC50 (Streptokinase A): 10.9 µM (active)
- IC50 [3]: > 119 µM (inactive)
- IC50 (Exodeoxyribonuclease V): > 119 µM (inactive)

Compound: Cc1cc(C)n(-c2nc(NCCN(C)C)c3c4c(sc3n2)CCCC4)n1
- CC50 [4]: 10.3 µM (active)
- EC50 [5]: 11.3 µM (active)
- AC50 [6]: 7 µM (active)
- CC50 [7]: 12.7 µM (active)
- EC50 [8]: 8.07 µM (active)
- EC50 [9]: 6.98 µM (active)
- CC50 [10]: 5.33 µM (active)
- AC50 (Paired box protein Pax-8): 22.9 µM (active)
- IC50 (cells): 13.8 µM (active)
- AC50 (INS1): 8.03 µM (active)
- EC50 [11]: 8.38 µM (active)
- CC50 [12]: 9.27 µM (active)
- EC50 [13]: 8.65 µM (inconclusive)

Compound: COc1cccc(-c2nnc(NC(=O)c3ccc4ncsc4c3)o2)c1
- EC50 [5]: 1.9 µM (active)
- CC50 [7]: 23.5 µM (active)
- CC50 [10]: 13 µM (active)
- IC50 (cells): 11.7 µM (active)
- CC50 [12]: > 20 µM (active)
- EC50 [13]: > 150 µM (inconclusive)

Compound: O=C(COC(=O)CCc1c[nH]c2ccccc12)Nc1ccc([N+](=O)[O-])cc1
- IC50 (cells): 9.62 µM (active)
- CC50 [12]: > 20 µM (active)

Compound: Cc1ccc(N/N=C(\Cc2nc3ccccc3[nH]2)c2ccccc2)cc1
- AC50 [14]: 0.385 µM (inconclusive)
- AC50 [15]: 0.47 µM (active)

Compound: Cc1cc(N/N=C/c2ccc([N+](=O)[O-])o2)nc2ccccc12
- IC50 [3]: > 118 µM (inactive)
- IC50 (Exodeoxyribonuclease V): > 118 µM (inactive)

Compound: C=CCc1cccc(/C=N/NC(=O)CCC(=O)Nc2ccc(F)cc2)c1O
- AC50 (INS1): 3.18 µM (active)
- IC50 [3]: > 119 µM (inactive)
- IC50 (Exodeoxyribonuclease V): > 119 µM (inactive)
